# Data taken from PubChem BioAssay AID2060337 (Molecular Pharmacology Branch, DTP, NCI, 2025).
# Where “and” joins values, the source holds several entries; their conditions need not be identical. Equal entries are not always repeated.
# System: 832693-133-R-J1-PDC multi-cell spheroids, viability
# Test: Anticancer human tumor 832693-133-R-J1-PDC patient-derived head and neck squamous carcinoma cell line growth inhibition [IpAb]
# Settings: for viability, T/C: stronger effect = lower value
# Outline: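 Multi-cell spheroids of 60% tumour cells, 25% HUVEC and 15% MSC in ultra-low-attachment U-bottom wells, treated with agents combined with ipatasertib or abemaciclib. Half-log ranges top out near clinical Cmax, or 10 microM when Cmax is unknown.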
# [1] = curve of first compound, second compound 0.01 µM
# [2] = curve of first compound, second compound 0.0316 µM
# [3] = curve of first compound, second compound 0.1 µM
# [4] = curve of first compound, second compound 0.316 µM
# [5] = curve of first compound, second compound 1 µM
# [6] = second compound 0.01 µM, first compound 0.0316 µM
# [7] = second compound 0.01 µM, first compound 0.1 µM
# [8] = second compound 0.0316 µM, first compound 0.0316 µM
# [9] = second compound 0.0316 µM, first compound 0.1 µM
# [10] = second compound 0.1 µM, first compound 0.0316 µM
# [11] = second compound 0.1 µM, first compound 0.1 µM
# [12] = second compound 0.1 µM, first compound 0.316 µM
# [13] = second compound 0.1 µM, first compound 1 µM
# [14] = second compound 0.1 µM, first compound 3.16 µM
# [15] = second compound 0.1 µM, first compound 10 µM
# [16] = second compound 0.316 µM, first compound 0.0316 µM
# [17] = second compound 0.316 µM, first compound 0.1 µM
# [18] = second compound 0.316 µM, first compound 0.316 µM
# [19] = second compound 0.316 µM, first compound 1 µM
# [20] = second compound 0.316 µM, first compound 3.16 µM
# [21] = second compound 0.316 µM, first compound 10 µM
# [22] = second compound 1 µM, first compound 0.0316 µM
# [23] = second compound 1 µM, first compound 0.1 µM
# [24] = second compound 1 µM, first compound 0.316 µM
# [25] = second compound 1 µM, first compound 1 µM
# [26] = second compound 1 µM, first compound 3.16 µM
# [27] = second compound 1 µM, first compound 10 µM
# 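Note: spheroids exposed to the drugs for one week before the viability readout.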
# 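Throughout, for viability, T/C: 100% = DMSO vehicle control wells.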
smiles,measurement,setting,value
Cn1ncc(Cl)c1-c1cc(C(=O)NC(CN)Cc2cccc(F)c2)sc1Cl (configuration not stated) + CCN1CCN(Cc2ccc(Nc3ncc(F)c(-c4cc(F)c5nc(C)n(C(C)C)c5c4)n3)nc2)CC1,IC50,[1],4490 nM
same,IC50,[2],3210 nM
same,IC50,[3],< 31.6 nM
same,IC50,[4],< 31.6 nM
same,IC50,[5],< 31.6 nM
same,"viability, T/C",[6],94.4%
same,"viability, T/C",[7],91.1%
same,"viability, T/C","second compound 0.01 µM, first compound 0.316 µM",67.5%
same,"viability, T/C","second compound 0.01 µM, first compound 1 µM",50.2%
same,"viability, T/C","second compound 0.01 µM, first compound 3.16 µM",73.7%
same,"viability, T/C","second compound 0.01 µM, first compound 10 µM",0.29%
same,"viability, T/C",[8],79.4%
same,"viability, T/C",[9],70.2%
same,"viability, T/C","second compound 0.0316 µM, first compound 0.316 µM",61.3%
same,"viability, T/C","second compound 0.0316 µM, first compound 1 µM",46.6%
same,"viability, T/C","second compound 0.0316 µM, first compound 3.16 µM",59.9%
same,"viability, T/C","second compound 0.0316 µM, first compound 10 µM",0.25%
same,"viability, T/C",[10],64.4%
same,"viability, T/C",[11],50%
same,"viability, T/C",[12],43.4%
same,"viability, T/C",[13],37.8%
same,"viability, T/C",[14],49.9%
same,"viability, T/C",[15],0.21%
same,"viability, T/C",[16],53.2%
same,"viability, T/C",[17],38.4%
same,"viability, T/C",[18],31.6%
same,"viability, T/C",[19],33.3%
same,"viability, T/C",[20],32.1%
same,"viability, T/C",[21],0.19%
same,"viability, T/C",[22],47.6%
same,"viability, T/C",[23],37.1%
same,"viability, T/C",[24],33.2%
same,"viability, T/C",[25],32.8%
same,"viability, T/C",[26],36%
same,"viability, T/C",[27],0.28%
C=CC(=O)N1CCN(c2nc(=O)n(-c3c(C)ccnc3C(C)C)c3nc(-c4c(O)cccc4F)c(F)cc23)C(C)C1 (configuration not stated) + CC(C)NCC(C(=O)N1CCN(c2ncnc3c2C(C)CC3O)CC1)c1ccc(Cl)cc1,IC50,[3],> 10000 nM
same,IC50,[4],4460 nM
same,IC50,[5],237 nM
same,IC50,"curve of first compound, second compound 3.16 µM",309 nM
same,IC50,"curve of first compound, second compound 10 µM",3740 nM
same,"viability, T/C",[10],96.1%
same,"viability, T/C",[11],91.6%
same,"viability, T/C",[12],86%
same,"viability, T/C",[13],92.2%
same,"viability, T/C",[14],104%
same,"viability, T/C",[15],77.3%
same,"viability, T/C",[16],81.1%
same,"viability, T/C",[17],75.3%
same,"viability, T/C",[18],70.9%
same,"viability, T/C",[19],67.2%
same,"viability, T/C",[20],56.6%
same,"viability, T/C",[21],36.6%
same,"viability, T/C",[22],53.6%
same,"viability, T/C",[23],55%
same,"viability, T/C",[24],48.2%
same,"viability, T/C",[25],41.8%
same,"viability, T/C",[26],34.7%
same,"viability, T/C",[27],18.8%
same,"viability, T/C","second compound 3.16 µM, first compound 0.0316 µM",55.7%
same,"viability, T/C","second compound 3.16 µM, first compound 0.1 µM",52.4%
same,"viability, T/C","second compound 3.16 µM, first compound 0.316 µM",49.1%
same,"viability, T/C","second compound 3.16 µM, first compound 1 µM",43%
same,"viability, T/C","second compound 3.16 µM, first compound 3.16 µM",36.8%
same,"viability, T/C","second compound 3.16 µM, first compound 10 µM",17%
same,"viability, T/C","second compound 10 µM, first compound 0.0316 µM",53.4%
same,"viability, T/C","second compound 10 µM, first compound 0.1 µM",69%
same,"viability, T/C","second compound 10 µM, first compound 0.316 µM",65.8%
same,"viability, T/C","second compound 10 µM, first compound 1 µM",57.3%
same,"viability, T/C","second compound 10 µM, first compound 3.16 µM",56%
same,"viability, T/C","second compound 10 µM, first compound 10 µM",18.4%
CC(C)n1nc(-c2ccc3oc(N)nc3c2)c2c(N)ncnc21 + CCN1CCN(Cc2ccc(Nc3ncc(F)c(-c4cc(F)c5nc(C)n(C(C)C)c5c4)n3)nc2)CC1,IC50,[1],> 100 nM
same,IC50,[2],36.3 nM
same,IC50,[3],10.6 nM
same,IC50,[4],2.03 nM
same,IC50,[5],0.859 nM
same,"viability, T/C","second compound 0.01 µM, first compound 0.000316 µM",83%
same,"viability, T/C","second compound 0.01 µM, first compound 0.001 µM",82.8%
same,"viability, T/C","second compound 0.01 µM, first compound 0.00316 µM",73.5%
same,"viability, T/C","second compound 0.01 µM, first compound 0.01 µM",77.8%
same,"viability, T/C",[6],50.6%
same,"viability, T/C",[7],53.2%
same,"viability, T/C","second compound 0.0316 µM, first compound 0.000316 µM",71.8%
same,"viability, T/C","second compound 0.0316 µM, first compound 0.001 µM",73.6%
same,"viability, T/C","second compound 0.0316 µM, first compound 0.00316 µM",64%
same,"viability, T/C","second compound 0.0316 µM, first compound 0.01 µM",61%
same,"viability, T/C",[8],52.4%
same,"viability, T/C",[9],38.4%
same,"viability, T/C","second compound 0.1 µM, first compound 0.000316 µM",61%
same,"viability, T/C","second compound 0.1 µM, first compound 0.001 µM",56%
same,"viability, T/C","second compound 0.1 µM, first compound 0.00316 µM",52.7%
same,"viability, T/C","second compound 0.1 µM, first compound 0.01 µM",53%
same,"viability, T/C",[10],43%
same,"viability, T/C",[11],34.5%
same,"viability, T/C","second compound 0.316 µM, first compound 0.000316 µM",50.6%
same,"viability, T/C","second compound 0.316 µM, first compound 0.001 µM",55.7%
same,"viability, T/C","second compound 0.316 µM, first compound 0.00316 µM",49%
same,"viability, T/C","second compound 0.316 µM, first compound 0.01 µM",42.3%
same,"viability, T/C",[16],42.9%
same,"viability, T/C",[17],34.8%
same,"viability, T/C","second compound 1 µM, first compound 0.000316 µM",59.5%
same,"viability, T/C","second compound 1 µM, first compound 0.001 µM",50.3%
same,"viability, T/C","second compound 1 µM, first compound 0.00316 µM",41.6%
same,"viability, T/C","second compound 1 µM, first compound 0.01 µM",38.2%
same,"viability, T/C",[22],39.8%
same,"viability, T/C",[23],38.6%
CC(=O)c1c(C)c2cnc(Nc3ccc(N4CCNCC4)cn3)nc2n(C2CCCC2)c1=O,"viability, T/C",compound 0.000949 µM,87.4% and 105%
same,"viability, T/C",compound 0.003 µM,87.3% and 96.4%
same,"viability, T/C",compound 0.00949 µM,79.2% and 84.6%
same,"viability, T/C",compound 0.03 µM,66.9% and 69.8%
same,"viability, T/C",compound 0.0949 µM,69.9% and 64.3%
same,"viability, T/C",compound 0.3 µM,51% and 55.9%
same,IC50,curve of compound,> 300 nM
